From US8058243B2, “Method for treating a brain cancer with ifenprodil” (HSC Research and Development Limited Partnership, priority 2006, dated 2011)
Counter-ions that a name gives are not always drawn. Like-named read-outs stand apart in the source and are kept apart here.

Test system: murine neural precursor cells (neurosphere cultures)
Assay: HTS of LOPAC library against secondary neurosphere cultures, MTT proliferation assay at 3 μM, day 7 (z score, P value)
Type: cell-based, mouse
[1] = LOPAC primary screen, neurosphere MTT proliferation, 3 μM, day 7
[2] = yes/no: significantly inhibited neurosphere proliferation (P<0.01) in the primary screen
[3] = yes/no: significantly inhibited neurosphere proliferation (P<0.01) in primary screen
[4] = LOPAC library screen at 3 μM, secondary neurosphere cultures, MTT
[5] = LOPAC library screen, 3 μM, MTT, neurosphere cultures
[6] = LOPAC screen, neurosphere MTT proliferation, 3 μM, day 7
[7] = yes = significantly inhibited neurosphere proliferation (P<0.01) in the primary screen
[8] = primary LOPAC screen, 3 μM, MTT, neurosphere proliferation
[9] = yes/no: significantly inhibited neurosphere proliferation in the primary screen

Compound | Z Score | Z score [1] | Activity [3] | also measured
NC(=O)CI [Iodoacetamide] | −8.706 | −8.706 | – | Activity [2]: yes
CC(C)NC(C)Cc1ccc(I)cc1 (stereo not drawn) [Iofetamine hydrochloride] | −0.7588 | −0.759 | – | –
CC(C)[N+]1(C)[C@@H]2CC[C@H]1CC(OC(=O)C(CO)c1ccccc1)C2.[Br-] (stereo partly drawn) [Ipratropium bromide] | −0.308 | −0.308 | no | –
O=C(O)C1=CCNCC1 [Isoguvacine hydrochloride] | – | −2.220 | no | Z Score (LOPAC library screen, 3 μM, MTT, secondary neurosphere cultures, day 7): −2.22
O=C(/C=C/c1ccc(O)cc1)c1ccc(O)cc1O [Isoliquiritigenin] | – | – | – | Z Score (168 h, 3 µM): −2.817; Z score (168 h, 3 µM): −2.817; Activity [2]: yes
O=C(O)C1CCNCC1 [Isonipecotic acid] | – | – | no | Z Score (168 h, 3 µM): −0.4569; Z score (168 h, 3 µM): −0.457
CCC(NC(C)C)C(O)c1ccc(O)c(O)c1.CS(=O)(=O)O (stereo not drawn) [Isotharine mesylate] | −0.6392 | −0.639 | no | –
Nc1nc2[nH]c(=O)cnc2c(=O)[nH]1 [Isoxanthopterin] | 0.2339 | 0.234 | no | –
CC[C@H](C)[C@H]1O[C@]2(CC[C@@H]1C)C[C@@H]1C[C@@H](C/C=C(\C)[C@@H](O[C@H]3C[C@H](OC)[C@@H](O[C@H]4C[C@H](OC)[C@@H](O)[C@H](C)O4)[C@H](C)O3)[C@@H](C)/C=C/C=C3\CO[C@@H]4[C@H](O)C(C)=C[C@@H](C(=O)O1)[C@]34O)O2 [Ivermectin] | 1.507 | 1.507 | no | –
CCCn1c(C)c(C(=O)c2cccc3ccccc23)c2ccccc21 [JWH-015] | 0.6223 | 0.622 | no | –
C=C(C)[C@H]1CN[C@H](C(=O)O)[C@H]1CC(=O)O [Kainic acid] | −0.3169 | −0.317 | no | –
CCN1C[C@]2(C)CC[C@H](O)[C@]34C1[C@@H](C[C@H]23)[C@@]1(O)C[C@H](OC)[C@H]2C[C@@H]4[C@@H]1[C@H]2O [Karakoline] | −1.625 | −1.625 | no | –
O=C1Cc2c([nH]c3ccc(Br)cc23)-c2ccccc2N1 [Kenpaullone] | – | – | no | Z Score (168 h, 3 µM): −1.555; Z score (168 h, 3 µM): −1.555
O=C(c1ccc(F)cc1)C1CCN(CCn2c(=O)[nH]c3ccccc3c2=O)CC1 [Ketanserin tartrate] | – | – | – | Z Score (168 h, 3 µM): −3.325; Z score (168 h, 3 µM): −3.325; Activity [2]: yes
CC(=O)N1CCN(c2ccc(OCC3COC(Cn4ccnc4)(c4ccc(Cl)cc4Cl)O3)cc2)CC1 (stereo not drawn) [Ketoconazole] | – | – | – | Activity: no; Z Score (168 h, 3 µM): 0.586; Z score (168 h, 3 µM): 0.586
CC(C(=O)O)c1cccc(C(=O)c2ccccc2)c1 (stereo not drawn) [Ketoprofen] | – | −1.164 | – | Activity: no; Z Score [4]: −1.164
NC(CO)(CO)CO.O=C(c1ccccc1)c1ccc2n1CCC2C(=O)O (stereo not drawn) [Ketorolac tris salt] | – | −0.726 | no | Z Score [4]: −0.7256
CN1CCC(=C2c3ccccc3CC(=O)c3sccc32)CC1 [Ketotifen fumarate] | – | 0.957 | no | Z Score [5]: 0.9573
O=C(O)c1cc(=O)c2ccccc2[nH]1 [Kynurenic acid] | – | 0.702 | no | Z Score [5]: 0.7018
N[C@@H](CCCC(=O)O)C(=O)O [L-2-aminoadipic acid] | – | – | – | Z Score (168 h, 3 µM): −2.334; Z score (168 h, 3 µM): −2.334; Activity [2]: yes

Compound | Z Score | Z score [1] | Activity [3] | also measured
COC(=O)[C@@H](N)Cc1ccc(O)c(O)c1.Cl [L-3,4-Dihydroxyphenylalanine methyl ester hydrochloride] | – | – | no | Z Score [5]: 0.2769; Z score [6]: 0.277
N[C@@H](Cc1ccc(O)c(O)c1)C(=O)O [L-3,4-Dihydroxyphenylalanine] | – | – | no | Z Score (168 h, 3 µM): 2.44; Z score (168 h, 3 µM): 2.440
CCCCOC(=O)NS(=O)(=O)c1sc(CC(C)C)cc1-c1ccc(Cn2c(CC)nc3c(C)cc(C)nc32)cc1 [L-162,313] | 0.7923 | 0.792 | no | –
CCCc1c(OCCCOc2ccc(OCC(=O)O)cc2)ccc(C(C)=O)c1O [L-165,041] | 0.3062 | 0.306 | no | –
Cc1ccccc1N1CCN(S(=O)(=O)CC23CCC(CC2NC(=O)C(N)CCS(C)(=O)=O)C3(C)C)CC1 [L-368,899] | 0.2909 | 0.291 | no | –
Cc1c(CC(C)(C)C(=O)O)n(Cc2ccc(Cl)cc2)c2ccc(F)cc12 [L-655,240] | −0.121 | −0.121 | no | –
Nc1ccc(N2C(=O)c3ccccc3C2=O)c(Cl)c1 [L-655,708] | −0.6132 | −0.613 | no | –
Cl.c1ccc(CN2CCC3(CCCc4ccccc43)CC2)cc1 [L-687,384 hydrochloride] | −9.156 | −9.156 | – | Activity [7]: yes
CC1CN(S(=O)(=O)c2cccc3cnccc23)CCN1.Cl.Cl [L-701,324] | 0.4513 | 0.451 | – | –
Ic1ccccc1CNC1C2CCN(CC2)C1C(c1ccccc1)c1ccccc1.O=C(O)C(=O)O [L-703,606 oxalate] | – | −0.507 | – | Z Score [4]: −0.5069; Activity [7]: no
CC(=O)N[C@@H](Cc1c[nH]c2ccccc12)C(=O)OCc1cc(C(F)(F)F)cc(C(F)(F)F)c1 [L-732,138] | 0.5027 | – | – | Z score [8]: 0.503; Activity [9]: no
Cl.FC(F)(F)c1cc(CO[C@H]2CCCN[C@H]2c2ccccc2)cc(C(F)(F)F)c1 [L-733,060 hydrochloride] | −1.465 | −1.465 | – | Activity [7]: no
OC1(c2ccc(Cl)cc2)CCN(Cc2c[nH]c3ccccc23)CC1 [L-741,626] | −1.009 | −1.009 | – | Activity [7]: no
Cl.Clc1ccc(N2CCN(Cc3c[nH]c4ncccc34)CC2)cc1 [L-745,870 hydrochloride] | −11.27 | −11.274 | – | –
Cl.Cl.Cl.Ic1ccc(N2CCN(Cc3c[nH]c4ncccc34)CC2)cc1 [L-750,667 trihydrochloride] | −1.184 | −1.184 | – | Activity [2]: no
COc1cc2nc(N3CCN(C(=O)OCc4ccccc4)[C@H](C(=O)NC(C)(C)C)C3)nc(N)c2cc1OC [L-765,314] | −0.8308 | −0.831 | – | Activity [2]: no
N=C(N)NCCC[C@H](N)C(=O)O [L-Arginine] | 0.5592 | – | – | Z score [8]: 0.559; Activity [9]: no
N[C@@H](CC(=O)O)C(=O)O [L-Aspartic acid] | – | – | – | Activity: no; Z Score (168 h, 3 µM): 0.1632; Z score (168 h, 3 µM): 0.163
CCCCS(=N)(=O)CCC(N)C(=O)O [L-Buthionine-sulfoximine] | – | – | no | Z Score [5]: 0.5134; Z score [6]: 0.513
N=C(N)NOCC[C@H](N)C(=O)O.O=S(=O)(O)O [L-Canavanine sulfate] | −0.9024 | – | no | Z score [6]: −0.902
